Measurements: US20240409557A1, “5,6-FUSED AND 6,6-FUSED BICYCLIC ALCOHOLS AND ETHERS AND COMPOSITIONS FOR USE AS 15-PROSTAGLANDIN DEHYDROGENASE MODULATORS” (AMGEN INC., priority 2023, published 2024)

molecular target: T1, human recombinant 15-PGDH (Homo sapiens, UniProt P15428); experiment: Recombinant 15-PGDH enzymatic inhibition assay (PGDH-Lumi, NADH signal); format: biochemical; details: recombinant 15-PGDH; 15 min pre-incubation, 60 min reaction with PGE2 and NAD+, NADH signal
T1 sequence (P15428 1-266): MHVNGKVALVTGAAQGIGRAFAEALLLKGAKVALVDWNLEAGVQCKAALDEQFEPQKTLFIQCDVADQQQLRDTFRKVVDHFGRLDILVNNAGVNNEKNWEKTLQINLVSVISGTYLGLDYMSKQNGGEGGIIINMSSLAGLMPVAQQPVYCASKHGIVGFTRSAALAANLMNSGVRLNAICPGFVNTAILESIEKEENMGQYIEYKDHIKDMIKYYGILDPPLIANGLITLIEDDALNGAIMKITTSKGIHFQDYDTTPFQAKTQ
Description: These assays measured 15-PGDH enzymatic activity by quantifying the amount of NADH produced during a 60-minute reaction initiated by the addition of PGE2 and NAD+. Under the conditions of these experiments, the increase of NADH signal upon oxidation of PGE2 and reduction of NAD+ was linearly proportional to 15-PGDH enzymatic activity. The recombinant human, mouse, rat and dog 15-PGDH enzymatic assays were performed in a 25 μL volume of reaction buffer containing 50 mM Tris, pH 7.5, 0.01% Tween-20 and […] DTT in a 384-well microtiter plate. In concentration-response experiments with tested compounds, 22 concentrations from 2-fold serial dilutions in DMSO were pre-incubated with 15-PGDH for 15 minutes at room temperature. Then, PGE2 and β-NAD+ were added to initiate the 15-PGDH reaction. After 60 minutes at room temperature, the reaction was quenched and NADH signal was measured using a microtiter plate reader.
The following data (Table 27-1) provides the IC50 in μM of each compound for inhibiting enzymatic activity of the recombinant 15-PGDH in the assay described above.

Compound	IC50 [nM]
Nc1c(C(O)C2CC(F)(F)C2)sc2nc(-c3cncnc3)ccc12 (centres unmarked) [Compound B71, (3-amino-6-(5-pyrimidinyl)thieno[2,3-b]pyridin-2-yl)(3,3-difluorocyclobutyl)methanol]	0.749
Cn1nnc2cc(-c3ccc4cc([C@@H](O)C5CCOCC5)sc4n3)cnc21 (single isomer, unassigned) [Compound B41S]	151
CCCC(O)c1cc2ccc(-c3cnc4nn(C)cc4c3)cc2s1 (centres unmarked) [Compound B54, 1-(6-(2-methyl-2H-pyrazolo[3,4-b]pyridin-5-yl)-1-benzothiophen-2-yl)-1-butanol]	9.35
CN(C)c1c(CO)c(-c2cnc3nn(C)cc3c2)nc2sc(CO)cc12 [Compound A2, (4-(dimethylamino)-6-(2-methyl-2H-pyrazolo[3,4-b]pyridin-5-yl)thieno[2,3-b]pyridine-2,5-diyl)dimethanol]	2160
COCc1cc2c(C3(COC)CCC3)cc(-c3cnc4nn(C)cc4c3)nc2s1 [Compound A4, 5-(2-(methoxymethyl)-4-(1-(methoxymethyl)cyclobutyl)thieno[2,3-b]pyridin-6-yl)-2-methyl-2H-pyrazolo[3,4-b]pyridine]	> 100000
Cn1ncc2cc(-c3ccc4cc([C@@H](O)C5CCOCC5)sc4n3)cnc21 (single isomer, unassigned) [Compound B35S]	149
Cn1cc2cc(-c3ccc4cc(C(C)(O)C(F)(F)F)sc4n3)cnc2n1 (centres unmarked) [Compound C2, 1,1,1-trifluoro-2-(6-(2-methyl-2H-pyrazolo[3,4-b]pyridin-5-yl)thieno[2,3-b]pyridin-2-yl)-2-propanol]	225
O[C@H](c1cc2ccc(-c3cnc4[nH]nnc4c3)nc2s1)C1CCOCC1 (single isomer, unassigned) [Compound B44S]	133
Cc1cc2[nH]ncc2cc1-c1ccc2cc([C@@H](O)C3CCOCC3)sc2n1 (single isomer, unassigned) [Compound B38S]	1010
COC(c1cc2c(-c3ccnn3C)cc(-c3cnc4nn(C)cc4c3)nc2s1)C1CCC1 (centres unmarked) [Compound B4]	39.7
COCCC(O)(c1cc2ccc(-c3cnc4nn(C)cc4c3)nc2s1)C(F)(F)F (centres unmarked) [Compound C3, 1,1,1-trifluoro-4-methoxy-2-(6-(2-methyl-2H-pyrazolo[3,4-b]pyridin-5-yl)thieno[2,3-b]pyridin-2-yl)-2-butanol]	807
Cc1nc2ccc(-c3ccc4cc([C@@H](O)C5CC(F)(F)C5)sc4n3)cc2o1 (single isomer, unassigned) [Compound B51S]	6.58
CN1CCC(C(O)c2cc3ccc(-c4cnc5nn(C)cc5c4)nc3s2)CC1 (centres unmarked) [Compound B33, (1-methyl-4-piperidinyl)(6-(2-methyl-2H-pyrazolo[3,4-b]pyridin-5-yl)thieno[2,3-b]pyridin-2-yl)methanol]	27
C[C@@H]1CC[C@@]1(O)c1cc2ccc(-c3cnc4nn(C)cc4c3)nc2s1 (single isomer, unassigned) [Compound C64SR]	466
C[C@H](O)c1cc2c(C3CC3)cc(-c3cnc4nn(C)cc4c3)nc2s1 (single isomer, unassigned) [Compound B11S]	98.1
CC(O)c1cc2c(-c3ccnn3C)cc(-c3ccnn3C)nc2s1 (centres unmarked) [Compound B9, 1-(4,6-bis(1-methyl-1H-pyrazol-5-yl)thieno[2,3-b]pyridin-2-yl)ethanol]	17700
CC(O)c1cc2c(-c3cnc4nn(C)cc4c3)cc(-c3cnc4nn(C)cc4c3)nc2s1 (centres unmarked) [Compound B10, 1-(4,6-bis(2-methyl-2H-pyrazolo[3,4-b]pyridin-5-yl)thieno[2,3-b]pyridin-2-yl)ethanol]	139
O[C@H](c1cc2ccc(-c3ccc4oncc4c3)nc2s1)C1CCOCC1 (single isomer, unassigned) [Compound B43S]	626
O[C@H](c1cc2ccc(-c3cncnc3)nc2s1)C1CC(F)(F)C1 (single isomer, unassigned) [Compound B57S]	13.2
O[C@H](c1cc2ccc(-c3ccc4[nH]ncc4c3)nc2s1)C1CCOCC1 (single isomer, unassigned) [Compound B37S]	1880
